Measured values taken from the kinase profiling compilation of Christmann-Franck et al. (2016).
One block for each compound: values may come before it.

Tests used:
Assay in all cases: radiometric filter-binding kinase assay
[1] = test system: AKT1 (human), P31749 [S473D]
IKBKB (human) = IKBKB (human) (UniProt O14920)
MAPK8 (human) = MAPK8 (human) (UniProt P45983)
DYRK1A (human) = DYRK1A (human) (UniProt Q13627)
MAPK14 (human) = MAPK14 (human) (UniProt Q16539)
NEK6 (human) = NEK6 (human) (UniProt Q9HC98)
MAP2K1 (human) = MAP2K1 (human) (UniProt Q02750)
[2] = test system: RPS6KB1 (human), P23443 [T412E]
TBK1 (human) = TBK1 (human) (UniProt Q9UHD2)
CaMK1 (human) = CaMK1 (human) (UniProt Q14012)
STK3 (human) = STK3 (human) (UniProt Q13188)
DYRK3 (human) = DYRK3 (human) (UniProt O43781)
MARK3 (human) = MARK3 (human) (UniProt P27448)
PAK4 (human) = PAK4 (human) (UniProt O96013)
PIM1 (human) = PIM1 (human) (UniProt P11309)
MAPKAPK2 (human) = MAPKAPK2 (human) (UniProt P49137)
NEK2 (human) = NEK2 (human) (UniProt P51955)
MKNK2 (human) = MKNK2 (human) (UniProt Q9HBH9)
MAPK3 (human) = MAPK3 (human) (UniProt P27361)
IKBKE (human) = IKBKE (human) (UniProt Q14164)
RPS6KA1 KD1 KD2 (human) = RPS6KA1 KD1 KD2 (human) (UniProt Q15418)
CSNK1D (human) = CSNK1D (human) (UniProt P48730)
MAPK9 (human) = MAPK9 (human) (UniProt P45984)
CHEK2 (human) = CHEK2 (human) (UniProt O96017)
MKNK1 (human) = MKNK1 (human) (UniProt Q9BUB5)
Chain of MKNK1 (human) (Q9BUB5 whole entry, looked up): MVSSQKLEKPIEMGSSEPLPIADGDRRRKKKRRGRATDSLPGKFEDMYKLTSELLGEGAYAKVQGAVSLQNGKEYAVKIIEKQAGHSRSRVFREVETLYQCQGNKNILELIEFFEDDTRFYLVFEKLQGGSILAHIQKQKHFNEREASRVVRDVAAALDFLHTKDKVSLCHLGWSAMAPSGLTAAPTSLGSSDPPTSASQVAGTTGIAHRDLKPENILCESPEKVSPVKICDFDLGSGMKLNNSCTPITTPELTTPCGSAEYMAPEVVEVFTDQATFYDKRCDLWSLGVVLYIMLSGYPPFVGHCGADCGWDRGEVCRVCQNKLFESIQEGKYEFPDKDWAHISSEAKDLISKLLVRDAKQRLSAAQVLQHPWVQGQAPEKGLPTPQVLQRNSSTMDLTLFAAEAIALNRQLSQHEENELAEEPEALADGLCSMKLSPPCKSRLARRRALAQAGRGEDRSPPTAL

Chain of STK3 (human) (Q13188 whole entry, looked up): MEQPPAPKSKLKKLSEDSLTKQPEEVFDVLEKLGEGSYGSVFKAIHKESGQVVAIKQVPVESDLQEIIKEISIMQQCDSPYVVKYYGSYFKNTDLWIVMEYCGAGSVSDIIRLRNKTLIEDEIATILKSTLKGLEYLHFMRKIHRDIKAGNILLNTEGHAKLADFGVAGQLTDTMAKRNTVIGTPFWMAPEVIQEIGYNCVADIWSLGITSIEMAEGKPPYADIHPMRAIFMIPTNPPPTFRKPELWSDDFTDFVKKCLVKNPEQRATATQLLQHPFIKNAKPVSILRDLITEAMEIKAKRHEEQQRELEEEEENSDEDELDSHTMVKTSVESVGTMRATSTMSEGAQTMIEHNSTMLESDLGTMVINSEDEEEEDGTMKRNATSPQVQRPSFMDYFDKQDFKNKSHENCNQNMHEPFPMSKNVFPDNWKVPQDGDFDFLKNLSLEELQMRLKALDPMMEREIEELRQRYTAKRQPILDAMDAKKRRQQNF
Chain of MARK3 (human) (P27448 whole entry, looked up): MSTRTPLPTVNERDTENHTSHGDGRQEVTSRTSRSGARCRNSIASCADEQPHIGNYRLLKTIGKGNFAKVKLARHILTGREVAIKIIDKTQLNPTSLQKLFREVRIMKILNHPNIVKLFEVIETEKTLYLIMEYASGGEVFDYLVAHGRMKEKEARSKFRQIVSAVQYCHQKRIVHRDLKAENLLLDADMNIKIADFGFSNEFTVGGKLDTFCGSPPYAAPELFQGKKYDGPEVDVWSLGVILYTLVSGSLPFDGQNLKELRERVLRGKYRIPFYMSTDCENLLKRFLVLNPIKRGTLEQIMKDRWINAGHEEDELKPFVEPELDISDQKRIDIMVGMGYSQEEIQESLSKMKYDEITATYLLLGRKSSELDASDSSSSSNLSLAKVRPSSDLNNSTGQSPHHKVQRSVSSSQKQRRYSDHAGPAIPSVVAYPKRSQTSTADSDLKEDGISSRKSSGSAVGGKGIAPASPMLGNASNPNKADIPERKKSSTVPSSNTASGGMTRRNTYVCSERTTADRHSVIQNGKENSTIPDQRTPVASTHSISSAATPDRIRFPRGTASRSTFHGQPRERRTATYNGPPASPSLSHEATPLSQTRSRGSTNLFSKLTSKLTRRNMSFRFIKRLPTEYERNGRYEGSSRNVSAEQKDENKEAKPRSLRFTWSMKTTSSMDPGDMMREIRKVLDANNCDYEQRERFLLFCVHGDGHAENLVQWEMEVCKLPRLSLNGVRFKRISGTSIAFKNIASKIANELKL
Chain of IKBKE (human) (Q14164 whole entry, looked up): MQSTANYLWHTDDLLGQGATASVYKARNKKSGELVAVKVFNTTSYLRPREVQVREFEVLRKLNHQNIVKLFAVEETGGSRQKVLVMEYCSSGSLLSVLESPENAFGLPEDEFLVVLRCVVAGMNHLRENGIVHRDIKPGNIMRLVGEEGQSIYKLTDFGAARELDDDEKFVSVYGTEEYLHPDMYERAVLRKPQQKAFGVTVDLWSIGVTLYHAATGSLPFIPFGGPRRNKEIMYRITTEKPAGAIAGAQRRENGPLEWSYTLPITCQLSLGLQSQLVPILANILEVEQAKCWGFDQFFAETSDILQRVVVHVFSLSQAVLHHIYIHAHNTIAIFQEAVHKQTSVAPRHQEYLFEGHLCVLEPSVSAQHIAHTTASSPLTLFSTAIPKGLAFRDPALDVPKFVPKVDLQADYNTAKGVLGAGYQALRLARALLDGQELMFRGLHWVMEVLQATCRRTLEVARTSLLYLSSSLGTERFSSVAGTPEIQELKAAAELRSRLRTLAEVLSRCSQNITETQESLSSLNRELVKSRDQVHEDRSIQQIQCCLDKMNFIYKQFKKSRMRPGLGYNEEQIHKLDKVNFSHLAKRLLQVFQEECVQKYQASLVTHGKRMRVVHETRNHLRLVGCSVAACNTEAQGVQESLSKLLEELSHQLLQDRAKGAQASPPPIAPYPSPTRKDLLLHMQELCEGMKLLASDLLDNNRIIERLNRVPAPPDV
Chain of MAPK9 (human) (P45984 whole entry, looked up): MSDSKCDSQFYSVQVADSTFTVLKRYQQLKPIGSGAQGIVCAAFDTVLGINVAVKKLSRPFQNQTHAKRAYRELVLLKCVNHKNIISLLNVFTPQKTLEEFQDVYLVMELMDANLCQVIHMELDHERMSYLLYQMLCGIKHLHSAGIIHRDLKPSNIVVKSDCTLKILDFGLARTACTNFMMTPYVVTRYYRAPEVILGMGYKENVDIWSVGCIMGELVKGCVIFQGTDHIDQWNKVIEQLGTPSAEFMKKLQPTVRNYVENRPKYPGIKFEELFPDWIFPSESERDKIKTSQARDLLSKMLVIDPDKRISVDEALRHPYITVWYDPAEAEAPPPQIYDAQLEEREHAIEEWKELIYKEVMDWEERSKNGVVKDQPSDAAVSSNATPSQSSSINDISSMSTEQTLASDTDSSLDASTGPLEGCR
Chain of NEK2 (human) (P51955 whole entry, looked up): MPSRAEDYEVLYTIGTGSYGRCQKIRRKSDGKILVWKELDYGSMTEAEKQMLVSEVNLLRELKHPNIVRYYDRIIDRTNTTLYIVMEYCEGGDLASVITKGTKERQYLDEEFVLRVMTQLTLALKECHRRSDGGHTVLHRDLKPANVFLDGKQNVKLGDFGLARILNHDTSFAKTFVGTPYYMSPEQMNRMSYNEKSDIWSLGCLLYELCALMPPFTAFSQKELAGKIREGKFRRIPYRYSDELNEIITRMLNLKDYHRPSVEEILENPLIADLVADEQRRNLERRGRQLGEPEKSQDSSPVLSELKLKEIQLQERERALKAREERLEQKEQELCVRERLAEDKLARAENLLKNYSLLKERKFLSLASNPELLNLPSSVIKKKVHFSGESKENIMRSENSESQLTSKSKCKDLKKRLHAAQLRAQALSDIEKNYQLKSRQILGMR
Chain of MAPK14 (human) (Q16539 whole entry, looked up): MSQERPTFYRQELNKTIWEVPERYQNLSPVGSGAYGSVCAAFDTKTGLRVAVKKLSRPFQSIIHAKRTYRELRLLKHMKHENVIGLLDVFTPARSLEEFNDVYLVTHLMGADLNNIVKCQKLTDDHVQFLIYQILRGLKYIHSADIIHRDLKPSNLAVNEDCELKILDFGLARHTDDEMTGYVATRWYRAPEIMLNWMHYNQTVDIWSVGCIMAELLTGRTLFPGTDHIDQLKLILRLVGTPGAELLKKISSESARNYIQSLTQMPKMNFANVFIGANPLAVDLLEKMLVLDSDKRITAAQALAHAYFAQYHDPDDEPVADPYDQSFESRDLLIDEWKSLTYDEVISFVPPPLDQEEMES
Chain of CSNK1D (human) (P48730 whole entry, looked up): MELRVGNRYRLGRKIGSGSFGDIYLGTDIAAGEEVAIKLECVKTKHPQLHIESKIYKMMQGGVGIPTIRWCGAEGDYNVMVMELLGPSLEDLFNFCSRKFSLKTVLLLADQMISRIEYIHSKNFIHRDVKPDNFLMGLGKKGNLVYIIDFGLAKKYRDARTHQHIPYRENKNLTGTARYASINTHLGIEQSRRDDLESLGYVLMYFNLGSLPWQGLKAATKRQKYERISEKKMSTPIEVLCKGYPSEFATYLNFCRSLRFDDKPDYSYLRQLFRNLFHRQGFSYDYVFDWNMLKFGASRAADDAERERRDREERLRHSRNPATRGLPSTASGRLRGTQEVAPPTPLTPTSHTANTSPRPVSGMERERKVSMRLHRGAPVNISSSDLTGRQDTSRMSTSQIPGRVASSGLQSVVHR
Chain of RPS6KA1 KD1 KD2 (human) (Q15418 whole entry, looked up): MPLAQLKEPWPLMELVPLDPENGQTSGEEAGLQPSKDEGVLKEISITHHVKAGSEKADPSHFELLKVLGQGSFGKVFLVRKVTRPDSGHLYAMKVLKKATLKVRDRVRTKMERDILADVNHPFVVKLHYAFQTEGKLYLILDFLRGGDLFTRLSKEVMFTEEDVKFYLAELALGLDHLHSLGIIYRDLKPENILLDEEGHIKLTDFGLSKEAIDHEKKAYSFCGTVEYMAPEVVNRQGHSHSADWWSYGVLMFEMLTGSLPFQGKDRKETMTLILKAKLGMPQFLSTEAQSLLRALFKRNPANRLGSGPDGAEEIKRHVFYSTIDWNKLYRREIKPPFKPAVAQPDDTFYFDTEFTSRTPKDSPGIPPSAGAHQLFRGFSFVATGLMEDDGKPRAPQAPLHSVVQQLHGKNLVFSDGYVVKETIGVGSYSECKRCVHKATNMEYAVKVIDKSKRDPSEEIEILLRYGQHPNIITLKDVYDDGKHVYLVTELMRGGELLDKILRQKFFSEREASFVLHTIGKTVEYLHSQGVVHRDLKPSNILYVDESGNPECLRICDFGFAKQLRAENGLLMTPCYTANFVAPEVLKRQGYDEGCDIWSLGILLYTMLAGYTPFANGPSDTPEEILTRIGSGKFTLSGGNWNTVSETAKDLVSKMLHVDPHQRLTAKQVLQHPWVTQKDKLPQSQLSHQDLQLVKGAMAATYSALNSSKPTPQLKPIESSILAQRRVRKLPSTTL

residual activity ([1]; compound 0.1 µM): 85%
residual activity ([1]; compound 1.0 µM): 69%
residual activity ([1]; compound 10.0 µM): 62%
residual activity (IKBKB (human); compound 0.1 µM): 75%
residual activity (IKBKB (human); compound 10.0 µM): 26%
residual activity (MAPK8 (human); compound 0.1 µM): 124%
residual activity (MAPK8 (human); compound 1.0 µM): 99%
residual activity (MAPK8 (human); compound 10.0 µM): 48%
residual activity (DYRK1A (human); compound 0.1 µM): 42%
residual activity (DYRK1A (human); compound 1.0 µM): 11%
residual activity (MAPK14 (human); compound 0.1 µM): 81%
residual activity (MAPK14 (human); compound 1.0 µM): 80%
residual activity (MAPK14 (human); compound 10.0 µM): 45%
residual activity (NEK6 (human); compound 0.1 µM): 92%
residual activity (NEK6 (human); compound 1.0 µM): 76%
residual activity (NEK6 (human); compound 10.0 µM): 38%
residual activity (MAP2K1 (human); compound 0.1 µM): 8%
residual activity (MAP2K1 (human); compound 1.0 µM): 1%
residual activity (MAP2K1 (human); compound 10.0 µM): 2%
residual activity ([2]; compound 0.1 µM): 76%
residual activity ([2]; compound 1.0 µM): 32%
residual activity ([2]; compound 10.0 µM): 12%
residual activity (TBK1 (human); compound 0.1 µM): 27%
residual activity (TBK1 (human); compound 1.0 µM): 7%
residual activity (TBK1 (human); compound 10.0 µM): 11%
residual activity (CaMK1 (human); compound 0.1 µM): 112%
residual activity (CaMK1 (human); compound 1.0 µM): 69%
residual activity (CaMK1 (human); compound 10.0 µM): 19%
residual activity (STK3 (human); compound 0.1 µM): 8%
residual activity (STK3 (human); compound 1.0 µM): 2%
residual activity (STK3 (human); compound 10.0 µM): 0%
residual activity (DYRK3 (human); compound 0.1 µM): 19%
residual activity (DYRK3 (human); compound 1.0 µM): 4%
residual activity (DYRK3 (human); compound 10.0 µM): 1%
residual activity (MARK3 (human); compound 0.1 µM): 16%
residual activity (MARK3 (human); compound 1.0 µM): 5%
residual activity (MARK3 (human); compound 10.0 µM): 3%
residual activity (PAK4 (human); compound 0.1 µM): 64%
residual activity (PAK4 (human); compound 1.0 µM): 31%
residual activity (PIM1 (human); compound 0.1 µM): 43%
residual activity (PIM1 (human); compound 1.0 µM): 9%
residual activity (PIM1 (human); compound 10.0 µM): 2%
residual activity (MAPKAPK2 (human); compound 0.1 µM): 86%
residual activity (MAPKAPK2 (human); compound 1.0 µM): 49%
residual activity (MAPKAPK2 (human); compound 10.0 µM): 10%
residual activity (NEK2 (human); compound 0.1 µM): 100%
residual activity (NEK2 (human); compound 1.0 µM): 75%
residual activity (NEK2 (human); compound 10.0 µM): 28%
residual activity (MKNK2 (human); compound 0.1 µM): 75%
residual activity (MKNK2 (human); compound 1.0 µM): 46%
residual activity (MKNK2 (human); compound 10.0 µM): 16%
residual activity (MAPK3 (human); compound 0.1 µM): 71%
residual activity (MAPK3 (human); compound 10.0 µM): 4%
residual activity (IKBKE (human); compound 0.1 µM): 51%
residual activity (IKBKE (human); compound 1.0 µM): 12%
residual activity (IKBKE (human); compound 10.0 µM): 11%
residual activity (RPS6KA1 KD1 KD2 (human); compound 0.1 µM): 24%
residual activity (RPS6KA1 KD1 KD2 (human); compound 1.0 µM): 10%
residual activity (RPS6KA1 KD1 KD2 (human); compound 10.0 µM): 5%
residual activity (CSNK1D (human); compound 0.1 µM): 90%
residual activity (CSNK1D (human); compound 1.0 µM): 59%
residual activity (CSNK1D (human); compound 10.0 µM): 20%
residual activity (MAPK9 (human); compound 1.0 µM): 43%
residual activity (MAPK9 (human); compound 10.0 µM): 17%
residual activity (CHEK2 (human); compound 0.1 µM): -1%
residual activity (CHEK2 (human); compound 1.0 µM): -5%
residual activity (CHEK2 (human); compound 10.0 µM): 1%
residual activity (MKNK1 (human); compound 0.1 µM): 80%
residual activity (MKNK1 (human); compound 1.0 µM): 54%
residual activity (MKNK1 (human); compound 10.0 µM): 30%
SMILES: NC(=O)Nc1ccc2c(c1)/C(=C/c1cc(-c3cccnc3)c[nH]1)C(=O)N2

residual activity ([1]; compound 0.001 µM): 85%
residual activity ([1]; compound 0.01 µM): 76%
residual activity (IKBKB (human); compound 0.001 µM): 76%
residual activity (IKBKB (human); compound 0.01 µM): 74%
residual activity (MAPK8 (human); compound 0.001 µM): 114%
residual activity (MAPK8 (human); compound 0.01 µM): 117%
residual activity (MAPK8 (human); compound 0.1 µM): 106%
residual activity (DYRK1A (human); compound 0.001 µM): 110%
residual activity (DYRK1A (human); compound 0.01 µM): 91%
residual activity (DYRK1A (human); compound 0.1 µM): 67%
residual activity (MAPK14 (human); compound 0.001 µM): 87%
residual activity (MAPK14 (human); compound 0.01 µM): 86%
residual activity (MAPK14 (human); compound 0.1 µM): 84%
residual activity (NEK6 (human); compound 0.001 µM): 86%
residual activity (NEK6 (human); compound 0.01 µM): 84%
residual activity (NEK6 (human); compound 0.1 µM): 82%
residual activity (MAP2K1 (human); compound 0.001 µM): 87%
residual activity (MAP2K1 (human); compound 0.01 µM): 33%
residual activity (MAP2K1 (human); compound 0.1 µM): 7%
residual activity ([2]; compound 0.001 µM): 95%
residual activity ([2]; compound 0.01 µM): 91%
residual activity ([2]; compound 0.1 µM): 83%
residual activity (TBK1 (human); compound 0.001 µM): 99%
residual activity (TBK1 (human); compound 0.01 µM): 83%
residual activity (TBK1 (human); compound 0.1 µM): 43%
residual activity (CaMK1 (human); compound 0.001 µM): 104%
residual activity (CaMK1 (human); compound 0.01 µM): 116%
residual activity (CaMK1 (human); compound 0.1 µM): 103%
residual activity (STK3 (human); compound 0.001 µM): 83%
residual activity (STK3 (human); compound 0.01 µM): 36%
residual activity (STK3 (human); compound 0.1 µM): 10%
residual activity (DYRK3 (human); compound 0.001 µM): 83%
residual activity (DYRK3 (human); compound 0.01 µM): 74%
residual activity (DYRK3 (human); compound 0.1 µM): 33%
residual activity (MARK3 (human); compound 0.001 µM): 93%
residual activity (MARK3 (human); compound 0.01 µM): 61%
residual activity (MARK3 (human); compound 0.1 µM): 14%
residual activity (PAK4 (human); compound 0.001 µM): 80%
residual activity (PAK4 (human); compound 0.01 µM): 85%
residual activity (PAK4 (human); compound 0.1 µM): 76%
residual activity (PIM1 (human); compound 0.001 µM): 97%
residual activity (PIM1 (human); compound 0.01 µM): 98%
residual activity (PIM1 (human); compound 0.1 µM): 69%
residual activity (MAPKAPK2 (human); compound 0.001 µM): 98%
residual activity (MAPKAPK2 (human); compound 0.01 µM): 86%
residual activity (NEK2 (human); compound 0.001 µM): 92%
residual activity (NEK2 (human); compound 0.01 µM): 92%
residual activity (NEK2 (human); compound 0.1 µM): 86%
residual activity (MKNK2 (human); compound 0.001 µM): 93%
residual activity (MKNK2 (human); compound 0.01 µM): 86%
residual activity (MKNK2 (human); compound 0.1 µM): 78%
residual activity (MAPK3 (human); compound 0.001 µM): 97%
residual activity (MAPK3 (human); compound 0.01 µM): 89%
residual activity (MAPK3 (human); compound 0.1 µM): 82%
residual activity (IKBKE (human); compound 0.001 µM): 85%
residual activity (IKBKE (human); compound 0.01 µM): 84%
residual activity (IKBKE (human); compound 0.1 µM): 69%
residual activity (RPS6KA1 KD1 KD2 (human); compound 0.001 µM): 89%
residual activity (RPS6KA1 KD1 KD2 (human); compound 0.01 µM): 75%
residual activity (RPS6KA1 KD1 KD2 (human); compound 0.1 µM): 24%
residual activity (CSNK1D (human); compound 0.001 µM): 94%
residual activity (CSNK1D (human); compound 0.01 µM): 94%
residual activity (CSNK1D (human); compound 0.1 µM): 89%
residual activity (MAPK9 (human); compound 0.01 µM): 123%
residual activity (MAPK9 (human); compound 0.1 µM): 118%
residual activity (CHEK2 (human); compound 0.001 µM): 32%
residual activity (CHEK2 (human); compound 0.01 µM): 7%
residual activity (CHEK2 (human); compound 0.1 µM): 0%
residual activity (MKNK1 (human); compound 0.001 µM): 92%
residual activity (MKNK1 (human); compound 0.01 µM): 87%
residual activity (MKNK1 (human); compound 0.1 µM): 82%
SMILES: C/C(=C1/C(=O)Nc2ccc(NC(N)=O)cc21)c1ccc[nH]1
